The subject of series [1] is PC-3 cells. Nature of the series: Western blot of cell cycle regulation-related proteins and Wnt signaling in PC-3 cells. It counts as cell-based, human. The procedure:
A test was carried out to examine whether the inhibitory effects of thio-Cl-IB-MECA on the proliferation of LNCaP cells and PC-3 cells are attributable to regulation of the Wnt signaling pathway.
Specifically, each type of LNCaP cells and PC-3 cells was diluted with 10% FBS-containing medium to a density of 1.0×10^6 cells per 100 mm culture dish and cultured under the conditions of 37° C. and 5% CO2 for 24 hours, followed by washing twice with PBS. Thio-Cl-IB-MECA was diluted in 10% FBS-containing medium at required concentration, and then 10 ml of the culture medium prepared in the 100 mm culture dish was added thereto and cultured for a given period. The non-adherent cells and adherent cells in the cell medium were collected and washed twice with PBS, after which the cells were suspended in boiling cell lysis buffer and heated at 100° C. for 5 minutes. The cells were cooled and then stored at […], and the stored cells were thawed at 37° C. immediately before use in protein quantification and electrophoresis. Protein quantification was performed using the BCA method, and […] of protein was electrophoresed on 8-12% SDS-polyacrylamide gel at 150 V for 110 minutes. The gel at the desired site was cut and transferred to a PVDF (polyvinylidene fluoride) for 1 hour, and after which it was washed twice with PBST and stirred in blocking buffer at room temperature for 1 hour. Then, the membrane was washed three times with PBST for 5 minutes each time, after which primary antibody was diluted at a ratio of 1:1,000-1:2,000 with 3% skimmed milk/PBST, and it was sealed together with the membrane and incubated with stirring at 4° C. for 12 hours or more. The membrane was washed 2-3 times with PBST for 5 minutes each time, after which HRP-conjugated secondary antibody was diluted at a ratio of 1:1,500-1:2,000 and incubated with the membrane at room temperature for 2-3 hours. The membrane was washed three times with PBST for 5 minutes each time and treated with a Western blot substrate (WESTSAVE Up™), and the produced luminescence was examined using LAS-3000.

For series [2], the system named is TNF-α. Nature of the series: TNF-α secretion (ELISA) and mRNA expression (RT-PCR) in LPS-stimulated RAW 264.7 cells. It counts as cell-based, mouse. On the procedure: TNF-α is a cytokine whose expression increases in cells stimulated by LPS, and it influences the expression of IL-1β and the progression of inflammatory reactions. Thus, the effect of the inventive composition on the expression of TNF-α was examined. Specifically, RAW 264.7 cells were pretreated with each of 20, 10 and 5 μM of the inventive composition (thio-Cl-IB-MECA) and treated with LPS (1 μg/ml) to induce inflammatory reactions. Then, the cells were incubated for 6 hours, after which the supernatant was taken and the amount of TNF-α secreted into the supernatant was measured using an ELISA ([…]) kit.
In addition, in order to examine whether TNF-α is expressed at the gene level, the effect of the inventive composition on the expression of TNF-α mRNA was also tested using the RT-PCR method.
A general note: ELISA stands for enzyme-linked immunosorbent assay.

In series [3] the test system is LNCaP. Nature of the series: Morphological change of LNCaP cells. It counts as cell-based, human. Particulars: 40, 20 and 10 μM, 48 hours. The procedure: Each of LNCaP and PC-3 prostate cancer cell lines was treated with 40, 20 and 10 μM of thio-Cl-IB-MECA and cultured for 48 hours, and then the morphological change of the cells was observed.
Specifically, each type of the prostate cancer cells was diluted with 10% FBS (Fetal Bovine Serum)-containing medium to a density of 1.0×10^6 cells per 100 mm culture dish and cultured under the conditions of 37° C. and 5% CO2, followed by washing twice with PBS (Phosphate Buffered Saline). Thio-Cl-IB-MECA was diluted in 10% FBS-containing medium at required concentration, and then 10 ml of the culture medium prepared in the 100 mm culture dish was added thereto and incubated for a given time. The morphology of the cells was observed as a function of treatment time and concentration (FIGS. 11a and 11b).

Series [4] has as its system RAW 264.7 cells. Description: MTT assay, cytotoxicity in RAW 264.7 cells. Type of series: cell-based, mouse. Particulars: 20 μM (highest concentration). On the procedure:
In order to example whether the iNOS production inhibitory effect is attributable to the toxicity of the sample itself (inventive composition, thio-Cl-IB-MECA), an MTT (3-(4,5-dimethylthiazol-2-yl)-2,5-diphenyltetrazolium bromide) assay was performed.
On the technique in general: Tetrazolium assays rely on reduction of a dye to a coloured formazan, in cell work by metabolically active cells.

For series [5], the system named is PC-3 cells. Nature of the series: Cell cycle analysis (FACS) in PC-3 cells. Type of series: cell-based, human. The note with it: 40, 20 and 10 μM, 48 hours. On the procedure:
(§1) Cells were treated with 40, 20 and 10 μM of thio-Cl-IB-MECA and cultured for 48 hours, and the cell cycle of the cells was analyzed by flow cytometer analysis (FACS). Specifically, cells were diluted with 10% FBS-containing medium to a density of 1.0×10^6 cells per 100 mm culture dish and cultured under the conditions of 37° C. and 5% CO2 for 24 hours, followed by washing twice with PBS. Thio-Cl-IB-MECA was diluted in 10% FBS-containing medium at required concentration, and then 10 ml of the culture medium prepared in the 100 mm culture dish was added thereto and cultured for a given time. The non-adherent cells and adherent cells in the cell medium were collected and washed twice with PBS, after which 500 μL of 100% cold methanol was added thereto and the cells were fixed at 4° C. The cells were washed twice with PBS and allowed to stand in RNase A-containing solution for 30 minutes, after which the cells were stained with propidium iodide (PI) buffer for 5 minutes. After removal of the PI buffer, the cells were transferred into a polystyrene round-bottom tube, and cell cycle analysis was performed by FACScalibur® flow cytometry.

In series [6] the test system is LNCaP cells. Nature of the series: Cell cycle analysis (FACS) in LNCaP cells. It counts as cell-based, human. The note with it: 40, 20 and 10 μM, 48 hours. On the procedure: as §1

Molecules are shown by their SMILES.

Consider `CNC(=O)[C@H]1S[C@@H](n2cnc3c(NCc4cccc(I)c4)nc(Cl)nc32)[C@H](O)[C@@H]1O` [thio-Cl-IB-MECA, 2-chloro-N^6-(3-iodobenzyl)-4′-thioadenosine-5′-N-methyluronamide], for which, in series [1], the “Wnt signaling pathway, PC-3” value is on record as “inhibited the Wnt signaling pathway”; the “expression and RB phosphorylation of cyclin D, cyclin A, CDK4, c-myc and PCNA, PC-3” value is “inhibited the expression and RB phosphorylation”; the “expression of p53 and p27, PC-3” value is recorded as “increased the expression”. In addition, in series [2] (ELISA, 5, 10, 20 μM, LPS 1 μg/ml, 6 hours), the “amount of TNF-α secreted” value is “concentration-dependently inhibited”. The “expression of TNF-α mRNA” value in series [2] (RT-PCR) was “also inhibited”. In addition, the “number of the cells, LNCaP” value in series [3] was “decreased in a concentration-dependent manner”. Further, in series [4], the “viability of RAW 264.7 cells (MTT)” value was determined as 80%. For the same molecule, in series [5], the “G1 phase of cell cycle, PC-3” value is given as “an increase in the G1 phase appeared”. Moreover, the “G1 phase of cell cycle, LNCaP” value in series [6] is recorded as “an increase in the G1 phase appeared”.

Values taken from patent US20140371244A1, “METHOD FOR TREATING PROSTATE CANCER BY USE OF PHARMACEUTICAL COMPOSITION CONTAINING A3 ADENOSINE RECEPTOR AGONIST” (priority 2009, published 2014).
